{"source": "patent US20140275511A1", "about": "“PURIFICATION OF […]” (priority 2013, published 2014)", "key": {"[1]": {"system": "Valley Fever (coccidioidomycosis)", "conditions": "mouse, in vivo; cited from earlier work"}}, "data": [{"smiles": "C[C@@H]([C@H](N)C(=O)N[C@H](C(=O)O)[C@H]1O[C@@H](n2ccc(=O)[nH]c2=O)[C@H](O)[C@@H]1O)[C@H](O)c1ccc(O)cn1", "note": "[Nikkomycin Z]", "values": [{"measurement": "stability of broth at pH 4", "result": "reasonably stable for at least a week"}, {"measurement": "effectiveness at treating infected animals", "setting": "[1]", "result": "quite effective at treating infected animals"}]}]}
